Source: patent US6495663B1, “Method and composition for enhancing transport across biological membranes” (The Board of Trustees of the Leland Stanford Junior …, priority 1997, dated 2002)
“Also recorded” adds a separate entry of the source. No end group written: not given here. *: point of attachment. FITC = O=C1OC2(c3ccc(O)cc3Oc3cc(O)ccc32)c2ccc(NC(=S)*)cc21; Ahx = NCCCCCC(=O)O

Key:
[1] = cited from earlier work
[2] = system: gamma-IFN secretion by murine T cell line (clone 11.3); assay: Inhibition of gamma-IFN production by conjugates; format: cell-based
Method: 3. Gamma-IFN Assay. The amount of gamma interferon secreted by a murine T cell line (clone 11.3) was measured by incubating 10^5 T cells with varying amounts of antigen (peptide consisting of residues 110-121 of sperm whale myoglobin) and histocompatible spleen cells from DBA/2 mice (H-2d, 5×10^5), which act as antigen-presenting cells (APCs), in 96 well plates. After incubation for 24 hours at 37° C., 100 μL of the supernatants were transferred to microtiter plates coated with commercially available anti-gamma-IFN monoclonal antibodies (Mab) (Pharmingen, San Diego, Calif.). After incubation for an hour at room temperature, the plates were washed with PBS containing 1% fetal calf serum and 0.1% Tween®20, after which a second, biotinylated gamma-IFN Mab was added. After a second hour of incubation, the plates were washed as before, and europium (Eu)-streptavidin (Delphia-Pharmacia) was added. Again, after an hour of incubation, an acidic buffer was added to release Eu, which was measured by time-resolved fluorometry on a Delphia plate reader.
The ability of PNA-polyarginine conjugates to inhibit secretion of gamma-IFN was assayed by adding various concentrations of the above gamma-IFN conjugates with suboptimal doses of peptide antigen (0.5 μM), to a mixture of clone 11.3 T cells and histocompatible spleen cells.
After 24 hours, aliquots of the cultured supernatants were taken, and the amount of gamma-IFN was measured using the fluorescent binding assay described in section 3 above.

[3] = system: cells; assay: Length range studies: uptake of longer polyarginine conjugates (FACS, mean fluorescence of live cells); format: cell-based
Method: To examine the effect of substantially longer polymers, a mixture of L-arginine polymers with an average molecular weight of 12,000 daltons (≈100 amino acids) was also tested (Example 5). However, to avoid precipitation problems, the level of serum in the assay had to be reduced for testing conjugates with the ≈12,000 MW polymer material. Cell uptake was analyzed by FACS as above, and the mean fluorescence of live cells was measured. Cytotoxicity of each conjugate was also measured.
Suspension cells ([…]) were incubated for varying times, at 37° C., 23° C., or 4° C., with a range of concentrations of peptides or conjugates in PBS pH 7.2 containing 2% fetal calf serum (PBS/FCS) in 96 well plates. […] The pelleted cells were resuspended in PBS containing 2% FCS and 0.1% propidium iodide and analyzed on a FACScan (Becton Dickenson, Mountain View, Calif.). […]
The following homopolymers of polyarginine were tested by the fluorescence assay in Example 2, with incubation at 37° C. for 15 minutes prior to cell pelleting: r9, R9, R15, R20, R25, and R30. […] The cells were analyzed by FACS, and the mean fluorescence of the live cells was measured. Cytotoxicity of each conjugate was also measured by calculating the percentage of cells that stained with propidium iodide, which is characteristic of cell death. […]

[4] = Biological half-life / proteolysis by serum enzymes in uptake assay; format: in vitro ADME; details: serum-containing assay
[5] = system: E. coli strain HB101; assay: Transport into bacterial cells (gram-negative); format: cell-based; details: 30 minutes at 37° C., 3 to 50 μM conjugate
Method: Gram-negative bacteria (E. coli strain HB101) and gram-positive bacteria (Strep. bovis) were grown in appropriate media in logarithmic phase. Cell cultures (4×10^8 per mL) were incubated for 30 minutes at 37° C. with varying concentrations of fluorescent conjugates containing linear polymers of L-arginine (R4 through R9), D-arginine (r4 through r9), or L-lysine (K9) at conjugate concentrations of 3 to 50 μM. The cells were washed and taken up in PBS-containing propidium iodide (to distinguish dead cells) and analyzed by FACS and fluorescent microscopy. Results are shown in FIGS. 5A-5C as discussed above.

[6] = system: Jurkat cells; assay: Kinetics of uptake (Michaelis-Menten, Lineweaver-Burk); format: cell-based, human; details: for Km / VMAX: fluorescent conjugates, Jurkat cells, 0.5, 1, 2 and 4 minutes at 4° C., Lineweaver-Burk
Method: Peptides were incubated with cells for 0.5, 1, 2, and 4 minutes at 4° C. in triplicate, in 50 μL of PBS/FCS in 96-well plates. At the end of incubation, the reaction was quenched by diluting the samples in 5 mL of PBS/FCS, centrifuging and washing once with PBS/FCS, trypsin/EDTA, and finally again with PBS/FCS, and taking up the pellets in PBS/FCS containing propidium iodide for analysis on a FACScan. FACS data were fitted to the Line-weaver-Burk equation for Michaelis-Menten kinetics.

[7] = system: Jurkat cells; assay: Confocal cell microscopy of conjugate uptake; format: cell-based, human; details: 6.25 μM conjugate, 37° C., 10 minutes
Method: Cells incubated with fluorescent polyarginine peptides were prepared as described above for binding assays and analyzed at the Cell Sciences Imaging Facility (Stanford University, Stanford, Calif.) using a scanning, single beam laser confocal microscope, with an excitation wavelength of 488 nm (argon-ion laser) and an emission band-width of 510-550 using a band-pass filter. Conjugates (6.25 μM) containing tat(49-57), R7, or r7 coupled to fluorescein were incubated with Jurkat cells for 37° C. for 10 minutes. FIGS. 2A-2F show results for emitted fluorescence (FIGS. 2A-2C) and transmitted light (2D—2F) for tat(49-57) (FIGS. 2A and […]), R7 (FIGS. 2B and 2E), and r7 (FIGS. 2C and 2F).

[8] = target: T1, complex consisting of RAF-1 and p21 Ras (Homo sapiens, UniProt P04049); assay: Disruption of RAF-1/p21 Ras complex in peptide-treated T-cells; format: cell-based; details: same peptide treatment
T1 construct: T-cells which had been isolated by standard methods; endogenous in cells; host or cells: T-cells isolated by standard methods

[9] = target: T2, RAF-1 kinase (Homo sapiens, UniProt P04049); assay: RAF-kinase activity in anti-RAF-1 precipitates of T cells; format: cell-based; details: anti-RAF-1 precipitates of exposed T cells
T2 construct: Anti-RAF-1 precipitates of T cells; endogenous in cells; host or cells: T cells
Description: In a second study, the V7 peptide portion of the V7-poly-arginine conjugate was phosphorylated in vitro using protein kinase C.

[10] = target: T3, RAF-1 in V7 immunocomplex (Homo sapiens, UniProt P04049); assay: Anti-V7 immunoprecipitation from peptide-treated T-cells; format: cell-based
T3 construct: T-cells which had been isolated by standard methods; endogenous in cells; host or cells: T-cells isolated by standard methods
Method: The conjugate was added (final concentration ≈10 μM) to T-cells which had been isolated by standard methods, and was incubated at 37° C. for several hours to overnight. Cells were lysed using detergent (1% Triton X-100). DNA was removed, and the soluble (protein-containing) fraction was subjected to immunoprecipitation with an anti-V7 murine monoclonal antibody in combination with goat anti-mouse IgG. RAF-1 is a kinase that associates with, and is inactivated by association with, V7.

[11] = system: Jurkat cells; assay: Fluorescence assay of cellular uptake of peptide-fluorescein conjugates (FACS); format: cell-based, human; details: FIGS. 1A-1C
[12] = system: cytotoxic T-lymphocytes; assay: Transport of large protein antigen into APCs: stimulation of CTLs; format: cell-based; details: 10 μM on B-cells (APCs)
Method: The molar ratio of peptide conjugated to ovalbumin was quantified by amino acid analysis. The conjugate product was designated OV-R7. The conjugate was added (final concentration 10 μM) to B-cells, also referred to as antigen-presenting cells (APCs), which were isolated according to standard methods. The APCs were incubated with OV-R7, and then were added to a preparation of cytotoxic T-lymphocytes isolated by standard methods.

[13] = system: albumin-specific CTLs; assay: Dendritic cells exposed to conjugate and injected into mice: CTL response in blood; format: in vivo; details: dendritic cells exposed to antigen, then injected into mice
Method: In another experiment, histocompatible dendritic cells (a specific type of APC) were exposed to albumin-R7 conjugates and were then injected into mice. […] Control mice were given dendritic cells that had been exposed to unmodified albumin.

CC(=O)O[C@@]12CO[C@@H]1C[C@H](O)[C@@]1(C)C(=O)[C@H](O)C3=C(C)[C@@H](OC(=O)[C@H](O)[C@@H](NC(=O)OC(C)(C)C)c4ccccc4)C[C@@](O)([C@@H](OC(=O)c4ccccc4)[C@H]21)C3(C)C [taxotere]
water solubility [1]: 6 to 7 µg/mL

NH2-rrrrrrr-AACGCTACAC-COOH (PNA, D-arginine heptamer conjugate, chemistry not fully specified) [sense PNA-r7]
inhibition of gamma-IFN secretion ([2]; 24 hours, peptide antigen 0.5 μM, equivalent molar amounts): no inhibition

NH2-rrrrrrr-GTGTAGCGTT-COOH (all peptide nucleic acid (PNA); D-arginine heptamer attached at the N-terminus, further chemistry not fully specified) [antisense PNA-r7 conjugate]
reduction in IFN secretion ([2]; 24 hours, peptide antigen 0.5 μM): over 70% | conjugate level effective to block γ-IFN secretion ([2]; FIG. 7): above 10 μM

H3N-rrrrrrrrr-COO^-
rate of entering cells ([3]; FIG. 3 data): higher rates than polymers containing 15 or more contiguous arginines | uptake versus longer polymers ([3]; higher concentrations (>3 μM), 37° C., 15 minutes): significantly better than for the longer polymers | proteolytic degradation [4]: did not show evidence of proteolytic degradation | uptake levels by E. coli HB 101 cells [5]: much higher uptake levels | Km [6]: 7.21 µM | VMAX [6]: 0.39 µM/s | Km ([6]; listed as nonamer of D-arginine): 7 µM | apparent affinity (Km) relative to tat peptide ([6]; greater apparent affinity than tat(49-57)): approximately 100 fold | fluorescence of cytosol (confocal micrographs) [7]: brightly fluorescent

Arg-Lys-Lys-Arg-Arg-Gln-Arg-Arg-Arg (RKKRRQRRR; also: fluorescein conjugate, place not given here) [tat 49-57, polypeptide comprising HIV tat residues 49-57, fluorescein conjugate, reference compound]
Km [6]: 722 µM | VMAX [6]: 0.38 µM/s | fluorescence of cytosol (confocal micrographs) [7]: only weak staining

V7 peptide: V7 cytoplasmic tail sequence KLSTLRSNT with 7 arginine residues attached to its C-terminus (KLSTLRSNTRRRRRRR)
disruption of complex of RAF-1 and p21 Ras [8]: did not disrupt; also recorded: unable to disrupt | inhibition of RAF-kinase activity [9]: not | binding to RAF-1 [10]: can bind to RAF-1 | RAF-1 co-precipitation with V7 ([10]; ≈10 μM on T-cells, 37° C., several hours to overnight): RAF-1 protein was eliminated from the V7 immuno-complex; also recorded: RAF-1 protein was eliminated from the V7 immunocomplex

K9: nonamer of L-Lys residues, fluorescein conjugate ({FITC-Ahx}-KKKKKKKKK; also: fluorescein conjugate, place not given here)
cellular uptake (transport of fluorescein into cells) [11]: very little uptake | cellular uptake (transport of fluorescein into cells) ([11]; listed as poly-Lys nonamer): ineffective as a transporter

B1: unmodified ovalbumin: ovalbumin (45 kDa) protein antigen, not conjugated (protein, UniProt P01012 2-386, looked up)
Ovalbumin: GSIGAASMEFCFDVFKELKVHHANENIFYCPIAIMSALAMVYLGAKDSTRTQINKVVRFDKLPGFGDSIEAQCGTSVNVHSSLRDILNQITKPNDVYSFSLASRLYAEERYPILPEYLQCVKELYRGGLEPINFQTAADQARELINSWVESQTNGIIRNVLQPSSVDSQTAMVLVNAIVFKGLWEKAFKDEDTQAMPFRVTEQESKPVQMMYQIGLFRVASMASEKMKILELPFASGTMSMLVLLPDEVSGLEQLESIINFEKLTEWTSSNVMEERKIKVYLPRMKMEEKYNLTSVLMAMGITDVFSSSANLSGISSAESLKISQAVHAAHAEINEAGREVVGSAEAGVDAASVSEEFRADHPFLFCIKHIATNAVLFFGRCVSP
stimulation of CTLs by APCs incubated with antigen [12]: failed to stimulate the CTLs | albumin-specific CTL response in blood of mice [13]: did not exhibit the albumin-specific CTL response
